Key:
TF-VIIa = molecular target: T1, TF-VIIa (Homo sapiens, UniProt P08709); assay: TF-VIIa Assay; type: biochemical
T1 construct: 2nM recombinant human factor VIIa; purchased American Diagnostica, Greenwich CT; host or cells: soluble TF made in house in E. coli

Human factor Xa = Human factor Xa (Homo sapiens, UniProt P00742)
Sequence of Human factor Xa (P00742 235-488 limits assumed): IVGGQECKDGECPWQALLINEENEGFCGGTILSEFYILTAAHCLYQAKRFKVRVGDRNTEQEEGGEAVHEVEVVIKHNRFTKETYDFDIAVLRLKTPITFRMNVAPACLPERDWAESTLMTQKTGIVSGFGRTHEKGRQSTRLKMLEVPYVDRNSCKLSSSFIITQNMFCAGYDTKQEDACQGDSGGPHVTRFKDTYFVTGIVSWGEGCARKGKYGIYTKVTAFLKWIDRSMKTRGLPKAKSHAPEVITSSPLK
Sequence of Human factor Xa (P00742 41-179 limits assumed): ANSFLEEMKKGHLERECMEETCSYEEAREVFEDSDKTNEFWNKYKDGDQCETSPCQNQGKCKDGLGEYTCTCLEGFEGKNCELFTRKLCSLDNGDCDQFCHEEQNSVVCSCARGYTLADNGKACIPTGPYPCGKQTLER

T1 sequence (P08709 213-466 limits assumed): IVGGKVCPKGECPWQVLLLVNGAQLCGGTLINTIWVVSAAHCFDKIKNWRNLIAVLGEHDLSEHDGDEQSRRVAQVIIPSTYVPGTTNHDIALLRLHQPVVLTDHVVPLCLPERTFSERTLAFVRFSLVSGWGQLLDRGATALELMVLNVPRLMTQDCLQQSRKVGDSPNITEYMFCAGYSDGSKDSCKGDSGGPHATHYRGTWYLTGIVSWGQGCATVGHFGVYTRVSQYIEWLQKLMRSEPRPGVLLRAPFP
T1 sequence (P08709 61-212 limits assumed): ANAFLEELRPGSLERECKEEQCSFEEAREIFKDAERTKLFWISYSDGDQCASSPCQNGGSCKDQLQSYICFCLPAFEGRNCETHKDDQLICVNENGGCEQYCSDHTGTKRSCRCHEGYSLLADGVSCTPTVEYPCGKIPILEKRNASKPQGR
T1 sequence (P13726 33-251 partner limits assumed): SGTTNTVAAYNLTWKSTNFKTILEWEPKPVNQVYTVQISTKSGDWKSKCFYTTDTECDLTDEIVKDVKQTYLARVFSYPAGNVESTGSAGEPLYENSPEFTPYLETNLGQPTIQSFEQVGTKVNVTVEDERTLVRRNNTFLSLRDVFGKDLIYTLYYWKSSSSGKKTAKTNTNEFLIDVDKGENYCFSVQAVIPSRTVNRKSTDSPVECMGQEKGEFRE

SMILES | % Inhibition TF-VIIa (100 µM) (TF-VIIa) [%] | % Inhibition Factor Xa (100 µM) (Human factor Xa) [%]
Cc1c(Cl)nc(NCCc2ccccc2)c(=O)n1CC(=O)NCCc1ccncc1 [Example E-0002] | 0 | 0
Cc1c(Cl)nc(NCCc2cccc(Cl)c2)c(=O)n1CC(=O)NCCc1ccncc1 [Example E-0003] | 0 | 0
Cc1c(Cl)nc(NCCc2ccc(Cl)cc2)c(=O)n1CC(=O)NCCc1ccncc1 [Example E-0004] | 0 | 0
Cc1c(Cl)nc(NCCc2cccnc2)c(=O)n1CC(=O)NCCc1ccncc1 [Example E-0005] | 0 | 0
Cc1c(Cl)nc(NCCc2ccncc2)c(=O)n1CC(=O)NCCc1ccncc1 [Example E-0006] | 2 | 0
Cc1c(Cl)nc(NCCN2CCOCC2)c(=O)n1CC(=O)NCCc1ccncc1 [Example E-0007] | 0 | 0
Cc1c(Cl)nc(NCc2ccncc2)c(=O)n1CC(=O)NCCc1ccncc1 [Example E-0008] | 0 | 0
O=C(Cn1c(-c2ccccc2)c(Cl)nc(NCc2ccccc2)c1=O)NCCc1ccncc1 [Example E-0009] | 0 | 1
O=C(Cn1c(-c2ccccc2)c(Cl)nc(NCCc2ccccc2)c1=O)NCCc1ccncc1 [Example E-0010] | 0 | 0
O=C(Cn1c(-c2ccccc2)c(Cl)nc(NCCc2cccc(Cl)c2)c1=O)NCCc1ccncc1 [Example E-0011] | 0 | 0
O=C(Cn1c(-c2ccccc2)c(Cl)nc(NCCc2ccc(Cl)cc2)c1=O)NCCc1ccncc1 [Example E-0012] | 0 | 0
O=C(Cn1c(-c2ccccc2)c(Cl)nc(NCCc2cccnc2)c1=O)NCCc1ccncc1 [Example E-0013] | 0 | 0
O=C(Cn1c(-c2ccccc2)c(Cl)nc(NCCc2ccncc2)c1=O)NCCc1ccncc1 [Example E-0014] | 0 | 0
O=C(Cn1c(-c2ccccc2)c(Cl)nc(NCCN2CCOCC2)c1=O)NCCc1ccncc1 [Example E-0015] | 0 | 0
O=C(Cn1c(-c2ccccc2)c(Cl)nc(NCc2ccncc2)c1=O)NCCc1ccncc1 [Example E-0016] | 0 | 0
COc1ccc(-c2c(Cl)nc(NCc3ccccc3)c(=O)n2CC(=O)NCCc2ccncc2)cc1 [Example E-0033] | 0 | 0
COc1ccc(-c2c(Cl)nc(NCCc3cccnc3)c(=O)n2CC(=O)NCCc2ccncc2)cc1 [Example E-0037] | 0 | 0
COc1ccc(-c2c(Cl)nc(NCCc3ccncc3)c(=O)n2CC(=O)NCCc2ccncc2)cc1 [Example E-0038] | 0 | 0
COc1ccc(-c2c(Cl)nc(NCCN3CCOCC3)c(=O)n2CC(=O)NCCc2ccncc2)cc1 [Example E-0039] | 0 | 1
COc1ccc(-c2c(Cl)nc(NCc3ccncc3)c(=O)n2CC(=O)NCCc2ccncc2)cc1 [Example E-0040] | 0 | 0
O=C(Cn1c(-c2ccc3c(c2)OCO3)c(Cl)nc(NCc2ccccc2)c1=O)NCCc1ccncc1 [Example E-0041] | 0 | 0
O=C(Cn1c(-c2ccc3c(c2)OCO3)c(Cl)nc(NCCc2ccccc2)c1=O)NCCc1ccncc1 [Example E-0042] | 0 | 0
O=C(Cn1c(-c2ccc3c(c2)OCO3)c(Cl)nc(NCCc2cccc(Cl)c2)c1=O)NCCc1ccncc1 [Example E-0043] | 0 | 0
O=C(Cn1c(-c2ccc3c(c2)OCO3)c(Cl)nc(NCCc2ccc(Cl)cc2)c1=O)NCCc1ccncc1 [Example E-0044] | 0 | 0

SMILES | % Inhibition TF-VIIa (100 µM) (TF-VIIa) [%] | % Inhibition Factor Xa (100 µM) (Human factor Xa) [%]
O=C(Cn1c(-c2ccc3c(c2)OCO3)c(Cl)nc(NCCc2cccnc2)c1=O)NCCc1ccncc1 [Example E-0045] | 0 | 0
O=C(Cn1c(-c2ccc3c(c2)OCO3)c(Cl)nc(NCCc2ccncc2)c1=O)NCCc1ccncc1 [Example E-0046] | 0 | 0
O=C(Cn1c(-c2ccc3c(c2)OCO3)c(Cl)nc(NCCN2CCOCC2)c1=O)NCCc1ccncc1 [Example E-0047] | 0 | 0
O=C(Cn1c(-c2ccc3c(c2)OCO3)c(Cl)nc(NCc2ccncc2)c1=O)NCCc1ccncc1 [Example E-0048] | 0 | 0
O=C(Cn1c(-c2ccc(-c3ccccc3)cc2)c(Cl)nc(NCCc2cccnc2)c1=O)NCCc1ccncc1 [Example E-0053] | 0 | 0
O=C(Cn1c(-c2ccc(-c3ccccc3)cc2)c(Cl)nc(NCCN2CCOCC2)c1=O)NCCc1ccncc1 [Example E-0055] | 0 | 0
O=C(Cn1c(-c2ccc(-c3ccccc3)cc2)c(Cl)nc(NCc2ccncc2)c1=O)NCCc1ccncc1 [Example E-0056] | 0 | 0
O=C(Cn1c(Cc2ccccc2)c(Cl)nc(NCc2ccccc2)c1=O)NCCc1ccncc1 [Example E-0057] | 0 | 6
O=C(Cn1c(Cc2ccccc2)c(Cl)nc(NCCc2ccccc2)c1=O)NCCc1ccncc1 [Example E-0058] | 0 | 0
O=C(Cn1c(Cc2ccccc2)c(Cl)nc(NCCc2cccc(Cl)c2)c1=O)NCCc1ccncc1 [Example E-0059] | 0 | 0
O=C(Cn1c(Cc2ccccc2)c(Cl)nc(NCCc2ccc(Cl)cc2)c1=O)NCCc1ccncc1 [Example E-0060] | 0 | 0
O=C(Cn1c(Cc2ccccc2)c(Cl)nc(NCCc2cccnc2)c1=O)NCCc1ccncc1 [Example E-0061] | 0 | 0
O=C(Cn1c(Cc2ccccc2)c(Cl)nc(NCCc2ccncc2)c1=O)NCCc1ccncc1 [Example E-0062] | 0 | 0
O=C(Cn1c(Cc2ccccc2)c(Cl)nc(NCCN2CCOCC2)c1=O)NCCc1ccncc1 [Example E-0063] | 0 | 0
O=C(Cn1c(Cc2ccccc2)c(Cl)nc(NCc2ccncc2)c1=O)NCCc1ccncc1 [Example E-0064] | 0 | 0
O=C(Cn1c(CCc2ccccc2)c(Cl)nc(NCc2ccccc2)c1=O)NCCc1ccncc1 [Example E-0065] | 0 | 0
O=C(Cn1c(CCc2ccccc2)c(Cl)nc(NCCc2ccccc2)c1=O)NCCc1ccncc1 [Example E-0066] | 0 | 0
O=C(Cn1c(CCc2ccccc2)c(Cl)nc(NCCc2cccc(Cl)c2)c1=O)NCCc1ccncc1 [Example E-0067] | 0 | 0
O=C(Cn1c(CCc2ccccc2)c(Cl)nc(NCCc2ccc(Cl)cc2)c1=O)NCCc1ccncc1 [Example E-0068] | 0 | 0
O=C(Cn1c(CCc2ccccc2)c(Cl)nc(NCCc2cccnc2)c1=O)NCCc1ccncc1 [Example E-0069] | 0 | 0
O=C(Cn1c(CCc2ccccc2)c(Cl)nc(NCCc2ccncc2)c1=O)NCCc1ccncc1 [Example E-0070] | 0 | 0
O=C(Cn1c(CCc2ccccc2)c(Cl)nc(NCCN2CCOCC2)c1=O)NCCc1ccncc1 [Example E-0071] | 0 | 0
O=C(Cn1c(CCc2ccccc2)c(Cl)nc(NCc2ccncc2)c1=O)NCCc1ccncc1 [Example E-0072] | 0 | 0
